Test results reported in paper PMC5120274, “Characterization of the Annonaceous acetogenin, annonacinone, a natural product inhibitor of plasminogen activator inhibitor-1” (Scientific Reports, 2016).
Where “and” joins values, the source holds several entries; their conditions need not be identical. Equal values may be shown once. Read-outs that look alike come from different tables or passages of the source.

Assays:
PAI-1 [1] = molecular target: T1, PAI-1 (Homo sapiens, UniProt P05121); assay: chromogenic screening assay: rate of tPA inhibition by PAI-1 (spectrozyme tPA hydrolysis); assay type: biochemical; conditions: for kapp 50 μM (apparent rate constant of tPA inhibition by PAI-1): compound 50 μM, 1% DMSO, PAI-1 20 nM, tPA 10 nM, DMSO 1% control 4.4 ± 0.3 × 10^-3
T1 construct: purchased Stago BNL (Asnières sur Seine, FR)
T1 sequence (P05121 24-402): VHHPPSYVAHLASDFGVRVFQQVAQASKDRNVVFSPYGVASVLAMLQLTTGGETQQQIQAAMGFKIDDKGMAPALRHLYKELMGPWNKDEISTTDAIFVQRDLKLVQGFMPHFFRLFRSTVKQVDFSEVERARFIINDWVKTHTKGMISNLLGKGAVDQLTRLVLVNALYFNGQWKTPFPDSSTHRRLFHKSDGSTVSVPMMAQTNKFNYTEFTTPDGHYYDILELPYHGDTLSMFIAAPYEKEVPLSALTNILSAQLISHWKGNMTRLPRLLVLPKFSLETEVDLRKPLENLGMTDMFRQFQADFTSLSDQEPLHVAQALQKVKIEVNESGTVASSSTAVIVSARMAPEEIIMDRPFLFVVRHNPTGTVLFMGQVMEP
Protocol: Compounds from our local collection BioCIS and from the Prestwick compound library (Prestwick chemicals, Illkirch, FR), a collection containing only FDA approved drugs (around 4000 compounds in total) were tested in a chromogenic assay measuring the inhibition rate of tPA-catalyzed spectrozyme® tPA hydrolysis in the presence of PAI-1. Compounds (20 μL, final concentration 50 μM, 1% DMSO) were dispensed in a 96 well half area Greiner plate. A mixture containing 20 μL of PAI-1 (final concentration 20 nM) and 80 μL of Spectrozyme-tPA (final concentration 400 μM) was then added, and the mixture pre-incubated for 45 minutes at 37 °C. At the end of pre-incubation time, 90 μL of the mixture were added to another 96 well half area plate containing 10 μL tPA (final concentration 10 nM). The kinetic was then measured at 405 nm for 45 min at 37 °C in an Envision microplate reader. Progress curves were fitted using the pseudo first order equation to determine the apparent rate constant k.

vitronectin-bound PAI-1 = conditions: cited from earlier work
PAI-1 [2] = molecular target: T1, PAI-1; assay: thromboelastography (TEG) on pooled human plasma with tPA and PAI-1; assay type: biochemical; conditions: compound 50 μM, tPA 9 nM + PAI-1 22 nM
Protocol: 20 μL of CaCl2 (0.2 M), 10 μL of PAI-1 (final concentration 22 nM) and 10 μL of tested compounds were added in a TEG cup and pre-incubated for 20 min at room temperature. On the other hand, 1 mL of pooled citrated normal human plasma (pool of at least 10 healthy donors) was added to a vial containing 20 μL of Kaolin. 680 μl of the plasma/Kaolin mixture were then added to 20 μL of tPA (final concentration 9 nM). At the end of pre-incubation time, 320 μL of the plasma/tPA/kaolin mixture were transferred into the TEG cup and the thromboelastogram measured.

[3] = chromogenic screening assay, without vitronectin, mean ± SEM, n = 3, read-out: IC50

Compound	IC50 (PAI-1 [1])	kapp 50 μM (apparent rate constant of tPA inhibition by PAI-1) (PAI-1 [1]; mean ± SEM, n = 3)	IC50 (PAI-1 [1]; [3])	activity against PAI-1 bound to vitronectin (vitronectin-bound PAI-1)	further results
CCCCCCCCCCCC[C@@H](O)[C@H]1CC[C@H]([C@H](O)CCCC[C@H](O)CCCCC[C@@H](O)CC2=CC(C)OC2=O)O1 (stereo partly shown) [Annonacine]	6 ± 3 µM	6.4 ± 0.4 × 10^-4 s^-1			
CCCCCCCCCCCC[C@@H](O)[C@H]1CC[C@H]([C@H](O)CCCC[C@H](O)CCCCCC2CC(CC(C)=O)C(=O)O2)O1 (stereo partly shown) [Isoannonacine]	> 50 µM	1.1 ± 0.1 × 10^-3 s^-1			
CCCCCCCCCC[C@H](O)[C@H]1CC[C@H]([C@H]2CC[C@H]([C@H](O)CCCCCCCCCCC3CC(CC(C)=O)C(=O)O3)O2)O1 (stereo partly shown) [Isorolliniastatin-2]		8.5 ± 0.6 × 10^-4 s^-1	10 ± 2 µM		
CCCCCc1c(-c2ccc3cc(OCc4nnn[nH]4)ccc3c2)n(Cc2ccccc2)c2ccccc12 [PAI-749]				devoid of activity	
CCCCCCCCCC[C@H](O)[C@H]1CC[C@H]([C@H]2CC[C@H]([C@H](O)CCCCCCCCCCC(O)CC3=C[C@H](C)OC3=O)O2)O1 (stereo partly shown) [Rolliniastatin-2]		7.5 ± 0.5 × 10^-4 s^-1	19 ± 1 µM		
O=C(O)C(=O)c1cn(Cc2ccccc2)c2ccc(-c3ccc(OC(F)(F)F)cc3)cc12 [Tiplaxtinin, reference compound]		1.7 ± 0.3 × 10^-3 s^-1		devoid of activity	activity against vitronectin-bound PAI-1 (vitronectin-bound PAI-1): inactive; Angle (PAI-1 [2]): 66.2 °; K (clot formation time) (PAI-1 [2]): 1.8 min; MA (maximal amplitude) (PAI-1 [2]): 24.5 mm; R (clotting time) (PAI-1 [2]): 7 min; LY30 (clot lysis 30 minutes after maximal amplitude) (PAI-1 [2]; tPA alone 94.3%, tPA + PAI-1 0%): 21.9%; LY60 (clot lysis 60 minutes after maximal amplitude) (PAI-1 [2]; tPA alone 96.8%, tPA + PAI-1 0%): 50% and 50.2%; kapp 50 μM (apparent rate constant of tPA inhibition by PAI-1) (PAI-1 [1]; mean ± SEM, n = 3, listed as tiplaxtinin): 1.7 ± 0.3 × 10^−3 s^-1
